Measured values as given in patent US20230106943A1, “ENGINEERED ANTIMICROBIAL PEPTIDES AND USAGE THEREOF” (Peptilogics, Inc., priority 2021, published 2023).
Marks after values point to notes of the source that are not given here. No end group written: not given here.

Assay: Example 4 stability of concentrated solutions: HPLC-UV Assay/RS (method 78917)
Format: physicochemical
Conditions: for HPLC-UV Assay / Related Substances Purity / Related Substances Total Impurities: 81.4 mg/mL solution
Experimental: The peptide formulation of SEQ ID NO: 1 dissolved in a saline solution with a pH of 5.0±0.1 was tested for stability under either −20° C. or 40° C. with 75% relative humidity (RH). […]

[1] = 36.7 mg/mL solution, −20° C., 1 Month
[2] = 36.7 mg/mL solution, −20° C., 2 Month
[3] = 36.7 mg/mL solution, −20° C., 3 Month
[4] = 36.7 mg/mL solution, −20° C., 6 Month
[5] = 36.7 mg/mL solution, −20° C., 9 Month
[6] = 72.4 mg/mL solution, 40° C. and 75% RH, 1 Month
[7] = 72.4 mg/mL solution, 40° C. and 75% RH, 2 Month
[8] = 72.4 mg/mL solution, 40° C. and 75% RH, 3 Month
[9] = 72.4 mg/mL solution, 40° C. and 75% RH, 6 Month
[10] = 72.4 mg/mL solution, −20° C., 0 Month
[11] = 72.4 mg/mL solution, −20° C., 1 Month
[12] = 72.4 mg/mL solution, −20° C., 2 Month
[13] = 72.4 mg/mL solution, −20° C., 3 Month
[14] = 72.4 mg/mL solution, −20° C., 6 Month
[15] = 72.4 mg/mL solution, −20° C., 9 Month

RRWVRRVRRVWRRVVRVVRRWVRR-NH2 [SEQ ID NO: 1]
SEQ ID NO: 1 % area (Inj-1) [1]: 99.13%
SEQ ID NO: 1 % area (Inj-2) [1]: 99.12%
SEQ ID NO: 1 Mean % Area [1]: 99.1%
HPLC-UV Assay/RS % Assay [2]: 103.2%
HPLC-UV Assay/RS % Purity [2]: 99%
HPLC-UV Assay/RS % Total Impurities [2]: 0.9%
HPLC-UV Assay/RS Impurities RRT/%, RRT 1.02 [2]: 1.02/0.9%
HPLC-UV Assay/RS % Assay [3]: 101.7%
HPLC-UV Assay/RS % Purity [3]: 99%
HPLC-UV Assay/RS % Total Impurities [3]: 0.9%
HPLC-UV Assay/RS Impurities RRT/%, RRT 1.02 [3]: 1.02/0.9%
HPLC-UV Assay/RS % Assay [4]: 99.8%
HPLC-UV Assay/RS % Purity [4]: 99%
HPLC-UV Assay/RS % Total Impurities [4]: 0.9%
HPLC-UV Assay/RS Impurities RRT/%, RRT 1.02 [4]: 1.02/0.9%
HPLC-UV Assay/RS % Assay [5]: 96.9%
HPLC-UV Assay/RS % Purity [5]: 100%
HPLC-UV Assay/RS % Total Impurities [5]: 0.3%
HPLC-UV Assay/RS Impurities RRT/%, RRT 1.01 [5]: 1.01/0.3%
% Purity [6]: 99%
% Total Impurities [6]: 1.1%
HPLC-UV % Assay [6]: 95.9%
RRT 1.02 impurity % area (Inj-1) [6]: 0.92 % area
RRT 1.02 impurity % area (Inj-2) [6]: 0.90 % area
RRT 1.02 impurity Mean % Area [6]: 0.9 % Area
RRT 1.32 impurity % area (Inj-1) [6]: 0.17 % area
RRT 1.32 impurity % area (Inj-2) [6]: 0.18 % area
RRT 1.32 impurity Mean % Area [6]: 0.2 % Area
SEQ ID NO: 1 peak % area (Inj-1) [6]: 98.91 % area
SEQ ID NO: 1 peak % area (Inj-2) [6]: 98.92 % area
SEQ ID NO: 1 peak Mean % Area [6]: 98.9 % Area
% Purity [7]: 99%
% Total Impurities [7]: 1.5%
HPLC-UV % Assay [7]: 98.4%
% Purity [8]: 98%
% Total Impurities [8]: 1.8%
HPLC-UV % Assay [8]: 90.5%
% Purity [9]: 96%
% Total Impurities [9]: 3.6%
HPLC-UV % Assay [9]: 87.0* %
% Puritvy [10]: 99.1%
% Total Impurities [10]: 1.0%
HPLC-UV % Assay [10]: 94.2%
RRT 1.02 impurity % area (Inj-1) [10]: 0.97 % area
RRT 1.02 impurity % area (Inj-2) [10]: 0.93 % area
RRT 1.02 impurity Mean % Area [10]: 1.0 % Area
SEQ ID NO: 1 peak % area (Inj-1) [10]: 99.03 % area
SEQ ID NO: 1 peak % area (Inj-2) [10]: 99.07 % area
SEQ ID NO: 1 peak Mean % Area [10]: 99.1 % Area
% Puritvy [11]: 99%
HPLC-UV % Assay [11]: 97.7%
RRT 1.02 impurity % area (Inj-1) [11]: 0.88 % area
RRT 1.02 impurity % area (Inj-2) [11]: 0.87 % area
RRT 1.02 impurity Mean % Area [11]: 0.9 % Area
SEQ ID NO: 1 peak % area (Inj-1) [11]: 99.12 % area
SEQ ID NO: 1 peak % area (Inj-2) [11]: 99.13 % area
SEQ ID NO: 1 peak Mean % Area [11]: 99.1 % Area
Total % Impurities [11]: 0.9%
% Purity [12]: 99%
% Total Impurities [12]: 0.9%
HPLC-UV % Assay [12]: 101.1%
% Purity [13]: 99%
% Total Impurities [13]: 1.0%
HPLC-UV % Assay [13]: 97.4%
% Purity [14]: 99%
% Total Impurities [14]: 0.9%
HPLC-UV % Assay [14]: 95.1%
% Purity [15]: 100%
% Total Impurities [15]: 0.5%
HPLC-UV % Assay [15]: 95.9%
HPLC-UV Assay (40° C. and 75% RH, 1 Month): 102.5 % LC
Related Substances Purity (40° C. and 75% RH, 1 Month): 98%
Related Substances Total Impurities (40° C. and 75% RH, 1 Month): 1.7%
HPLC-UV Assay (40° C. and 75% RH, 2 Month): 102.6 % LC
Related Substances Purity (40° C. and 75% RH, 2 Month): 98%
Related Substances Total Impurities (40° C. and 75% RH, 2 Month): 2.4%
HPLC-UV Assay (40° C. and 75% RH, 3 Month): 92.0♦ % LC
Related Substances Purity (40° C. and 75% RH, 3 Month): 97%
Related Substances Total Impurities (40° C. and 75% RH, 3 Month): 2.6%
HPLC-UV Assay (−20° C., 0 Month): 108.6 % LC
Related Substances Purity (−20° C., 0 Month): 99%
Related Substances Total Impurities (−20° C., 0 Month): 0.9%
HPLC-UV Assay (−20° C., 1 Month): 103.8 % LC
Related Substances Purity (−20° C., 1 Month): 99%
Related Substances Total Impurities (−20° C., 1 Month): 1.0%
HPLC-UV Assay (−20° C., 2 Month): 107.8 % LC
Related Substances Purity (−20° C., 2 Month): 99%
Related Substances Total Impurities (−20° C., 2 Month): 0.9%
HPLC-UV Assay (−20° C., 3 Month): 104.7 % LC
Related Substances Purity (−20° C., 3 Month): 100%
Related Substances Total Impurities (−20° C., 3 Month): 0.3%
